Experimental findings from ChEMBL document CHEMBL2073819, “Enhanced exposure of phosphatidylserine in human gastric carcinoma cells overexpressing the half-size ABC transporter BCRP (ABCG2)” (Biochem J, 2003) are described below.

Assay type in all cases: functional, cell-based
Data set [1] has as its target T1, Broad substrate specificity ATP-binding cassette transporter ABCG2 (Homo sapiens, UniProt Q9UNQ0).
T1 sequence (Q9UNQ0 whole entry): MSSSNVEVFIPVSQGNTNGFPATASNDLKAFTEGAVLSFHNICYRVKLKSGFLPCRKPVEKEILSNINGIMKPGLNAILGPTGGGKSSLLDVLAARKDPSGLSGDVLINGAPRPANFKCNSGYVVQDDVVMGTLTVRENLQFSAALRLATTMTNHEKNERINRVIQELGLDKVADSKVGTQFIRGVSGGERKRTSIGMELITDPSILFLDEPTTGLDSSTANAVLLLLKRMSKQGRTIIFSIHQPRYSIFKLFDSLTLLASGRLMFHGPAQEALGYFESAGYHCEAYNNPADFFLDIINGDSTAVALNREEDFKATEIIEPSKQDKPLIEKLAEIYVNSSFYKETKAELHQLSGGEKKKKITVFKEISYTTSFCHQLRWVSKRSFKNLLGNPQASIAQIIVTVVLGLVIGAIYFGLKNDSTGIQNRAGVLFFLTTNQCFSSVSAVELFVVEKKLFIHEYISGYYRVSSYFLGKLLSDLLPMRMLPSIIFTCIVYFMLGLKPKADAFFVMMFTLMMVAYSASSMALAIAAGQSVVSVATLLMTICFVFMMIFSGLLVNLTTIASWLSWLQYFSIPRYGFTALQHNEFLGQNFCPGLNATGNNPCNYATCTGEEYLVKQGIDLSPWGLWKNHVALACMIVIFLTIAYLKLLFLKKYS
As to the kind of experiment: TP_TRANSPORTER: inhibition of C6-NBD-PS efflux in BCRP-expressing EPG85-257 cells.

The target of data set [2] is T1, Broad substrate specificity ATP-binding cassette transporter ABCG2. The experiment in a line: TP_TRANSPORTER: efflux in BCRP-expressing EPG85-257 cells.
The target in data set [3] is T2, ATP-dependent translocase ABCB1 (Homo sapiens, UniProt P08183). The experiment in a line: TP_TRANSPORTER: efflux in MDR1-expressing EPG85-257 cells.
The target of data set [4] is T2, ATP-dependent translocase ABCB1. The experiment in a line: TP_TRANSPORTER: inhibition of C6-NBD-PS efflux in MDR1-expressing EPG85-257 cells.

T2 sequence (P08183 whole entry): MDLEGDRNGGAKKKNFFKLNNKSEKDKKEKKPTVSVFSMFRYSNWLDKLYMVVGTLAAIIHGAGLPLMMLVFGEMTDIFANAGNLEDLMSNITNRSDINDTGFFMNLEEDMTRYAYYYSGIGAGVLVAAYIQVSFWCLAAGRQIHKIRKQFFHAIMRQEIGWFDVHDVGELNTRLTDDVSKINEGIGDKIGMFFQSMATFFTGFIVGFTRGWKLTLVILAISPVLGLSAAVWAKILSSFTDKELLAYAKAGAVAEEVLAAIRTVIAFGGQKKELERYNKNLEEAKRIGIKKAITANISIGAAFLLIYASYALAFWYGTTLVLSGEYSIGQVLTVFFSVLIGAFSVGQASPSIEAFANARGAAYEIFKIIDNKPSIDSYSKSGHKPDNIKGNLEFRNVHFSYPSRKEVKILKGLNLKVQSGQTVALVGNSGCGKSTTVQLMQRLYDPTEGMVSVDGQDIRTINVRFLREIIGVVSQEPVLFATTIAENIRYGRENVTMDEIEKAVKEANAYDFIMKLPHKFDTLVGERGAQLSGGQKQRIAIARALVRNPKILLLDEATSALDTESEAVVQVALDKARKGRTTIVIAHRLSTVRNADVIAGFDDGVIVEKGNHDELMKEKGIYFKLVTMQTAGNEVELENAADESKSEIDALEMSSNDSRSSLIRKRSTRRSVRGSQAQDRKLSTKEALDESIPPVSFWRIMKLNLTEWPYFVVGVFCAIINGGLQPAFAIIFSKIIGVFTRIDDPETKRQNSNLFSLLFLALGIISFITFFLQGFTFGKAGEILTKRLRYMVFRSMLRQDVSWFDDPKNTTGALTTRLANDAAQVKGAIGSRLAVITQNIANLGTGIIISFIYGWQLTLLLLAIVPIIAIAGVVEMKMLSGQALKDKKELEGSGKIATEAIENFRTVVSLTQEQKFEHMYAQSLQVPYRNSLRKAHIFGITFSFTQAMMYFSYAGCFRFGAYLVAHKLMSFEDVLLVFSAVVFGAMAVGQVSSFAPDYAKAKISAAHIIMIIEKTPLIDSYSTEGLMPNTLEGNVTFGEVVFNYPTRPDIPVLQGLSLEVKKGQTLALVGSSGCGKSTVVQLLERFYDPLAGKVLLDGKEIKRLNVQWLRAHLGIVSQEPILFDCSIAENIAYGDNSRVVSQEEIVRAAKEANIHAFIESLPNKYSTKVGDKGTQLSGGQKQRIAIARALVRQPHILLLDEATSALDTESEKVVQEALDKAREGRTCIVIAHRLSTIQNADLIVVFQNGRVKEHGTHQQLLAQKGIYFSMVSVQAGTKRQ

On to `COc1cc2c(cc1OC)CN(CCc1ccc(NC(=O)c3cccc4c(=O)c5cccc(OC)c5[nH]c34)cc1)CC2.Cl` [ELACRIDAR HYDROCHLORIDE], for which the Activity result in data set [1] is “inhibitor []”. As to `CCCCCCCCCCCCCCCC(=O)OCC(COP(=O)([O-])OCC[N+](C)(C)C)OC(=O)CCCCCNc1ccc([N+](=O)[O-])c2nonc12` (stereo unspecified), the Activity result in data set [2] was “substrate []”. For `CCCCCCCC/C=C\CCCCCCCC(=O)OC(COC(=O)CCCCCCC/C=C/CCCCCCCC)COP(=O)(O)OC[C@H](Nc1ccc([N+](=O)[O-])c2nonc12)C(=O)O` (stereo partly specified), the Activity entry in data set [2] and in data set [3] was “substrate []” in each case. Regarding `COc1ccc2c(C[C@@H]3NC(=O)[C@@H]4CCCN4C3=O)c(CC=C(C)C)[nH]c2c1` [TRYPROSTATIN A], the Activity result in data set [4] and in data set [1] was “inhibitor []” throughout.
